For this assay, the target named is T1, human IDO1 (Homo sapiens, UniProt P14902).
T1 construct: expressed in transfected cells
T1 sequence (P14902 whole entry): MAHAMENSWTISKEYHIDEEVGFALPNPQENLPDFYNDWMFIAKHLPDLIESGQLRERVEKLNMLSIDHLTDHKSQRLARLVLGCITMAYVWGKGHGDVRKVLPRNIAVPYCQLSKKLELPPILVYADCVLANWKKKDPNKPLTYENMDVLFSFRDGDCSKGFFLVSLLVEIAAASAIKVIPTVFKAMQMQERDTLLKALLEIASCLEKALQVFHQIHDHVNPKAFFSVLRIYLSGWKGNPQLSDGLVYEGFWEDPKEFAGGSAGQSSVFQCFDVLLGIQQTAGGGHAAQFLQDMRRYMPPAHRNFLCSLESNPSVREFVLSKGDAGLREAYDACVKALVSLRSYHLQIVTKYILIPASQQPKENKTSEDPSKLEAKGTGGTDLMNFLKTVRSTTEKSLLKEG
In words: HEK293 cells stably expressing human IDO1, IDO inhibition assay (kynurenine, Ehrlich reagent, absorbance 490 nm). The format is cell-based. The conditions noted are these: 20 hours incubation, 500 nM reference standard = 100% inhibition, read-out: HEK Human IDO-1 Biological Activity (IC50). The method, then: HEK293 cells were transfected with a pCDNA-based mammalian expression vector harboring human IDO1 cDNA (NM 002164.2) by electroporation. They were cultured in medium (DMEM with 10% FBS) containing 1 mg/ml G418 for two weeks. Clones of HEK293 cells that stably expressed human IDO1 protein were selected and expanded for IDO inhibition assay.
The human IDO1/HEK293 cells were seeded at 10,000 cells per 50 μL per well with RPMI/phenol red free media contains 10% FBS in a 384-well black wall clear bottom tissue culture plate (Matrix Technologies LLC) 100 nL of certain concentration of compound was then added to each well using ECHO liquid handling systems. The cells were incubated for 20 hours in 37° C. incubator with 5% CO2.
The compound treatments were stopped by adding Trichloroacetic Acid (Sigma-Aldrich) to a final concentration at 0.2%. The cell plate was further incubated at 50° C. for 30 minute. The equal volume supernatant […] and 0.2% (w/v) Ehrlich reagent (4-dimethylaminobenzaldehyde, Sigma-Aldrich) in glacial acetic acid were mixed in a new clear bottom 384-well plate. This plate was then incubated at room temperature for 30 minute. The absorbance at 490 nm was measured on Envision plate reader.
What is called IC50 is the point on the concentration scale where inhibition reaches its midpoint. As to `CC(C(=O)Nc1ccc(Cl)cc1)C1CCC(c2ccnc(C(F)(F)F)c2)CC1` (single isomer, unassigned) [Example 312a, N-(4-chlorophenyl)-2-(4-(2-(trifluoromethyl)pyridin-4-yl)cyclohexyl) propanamide], the concentration for half-maximal inhibition (IC50) was under 250 nM.
Take `Cc1nccc(C2CCC(C(C)C(=O)Nc3ccc(Cl)cc3)CC2)c1C` (single isomer, unassigned) [Example 311a, N-(4-chlorophenyl)-2-(4-(2,3-dimethylpyridin-4-yl)cyclohexyl) propanamide]: the concentration for half-maximal inhibition (IC50) was under 50 nM.
As to `CC(C(=O)Nc1ccc(Cl)cc1)C1CCC(c2ccnnc2)CC1` (single isomer, unassigned) [Example 316b, N-(4-chlorophenyl)-2-(4-(pyridazin-4-yl)cyclohexyl) propanamide], the 50% inhibitory concentration (IC50) was over 250 nM.
Turning to `CC(C(=O)Nc1ccc(Cl)cc1)C1CCC(c2ccnnc2)CC1` (single isomer, unassigned) [Example 316d, N-(4-chlorophenyl)-2-(4-(pyridazin-4-yl)cyclohexyl) propanamide], the 50% inhibitory concentration (IC50) is over 250 nM.
For `Cc1cc(C2CCC(C(C)C(=O)Nc3ccc(Cl)cc3)CC2)cc(C)n1` (single isomer, unassigned) [Example 308a, N-(4-chlorophenyl)-2-(4-(2,6-dimethylpyridin-4-yl)cyclohexyl) propanamide], the IC50 is under 250 nM.
Turning to `CC1(CC(=O)Nc2ccc(Cl)cc2)CCN(c2ccnc(C(F)(F)F)c2)CC1` [Example 321, N-(4-Chlorophenyl)-2-(4-methyl-1-(2-(trifluoromethyl)pyridin-4-yl)piperidin-4-yl)acetamide], the IC50 was under 250 nM.
Consider `Cc1nccc(C2CCC(C(C)C(=O)Nc3ccc(Cl)cc3)CC2)n1` (centres unmarked) [Example 319b, N-(4-chlorophenyl)-2-(4-(2-methylpyrimidin-4-yl)cyclohexyl) propanamide], for which the IC50 was over 250 nM.
`CC(=O)Nc1cc(C2CCC(C(C)C(=O)Nc3ccc(Cl)cc3)CC2)ccn1` (single isomer, unassigned) [Example 315b, 2-(4-(2-acetamidopyridin-4-yl)cyclohexyl)-N-(4-chlorophenyl) propanamide]: the IC50 was under 50 nM.
To `CCC(C(=O)Nc1ccc(Cl)cc1)[C@H]1CC[C@@H](Oc2ccncc2)CC1` (mixture of isomers) [Example 306, N-(4-Chlorophenyl)-2-(cis-4-(pyridin-4-yloxy)cyclohexyl)butanamide] belongs under 50 nM; to `CC(C(=O)Nc1ccc(Cl)cc1)C1CCC(c2cc(-c3ccc(F)cc3)ncn2)CC1` (centres unmarked) [Example 314a, N-(4-chlorophenyl)-2-(4-(6-(4-fluorophenyl)pyrimidin-4-yl)cyclohexyl) propanamide], under 250 nM.
As for `COc1cc([C@H]2CC[C@@H]([C@H](C)C(=O)Nc3ccc(Cl)cc3)CC2)ccn1` (single isomer, unassigned) [Example 307c, N-(4-Chlorophenyl)-2-(4-(2-methoxypyridin-4-yl)cyclohexyl)propanamide], the half-maximal inhibitory concentration (IC50) is under 50 nM.
For `CC(=O)Nc1cc(C2CCC(C(C)C(=O)Nc3ccc(Cl)cc3)CC2)ccn1` (single isomer, unassigned) [Example 315a, 2-(4-(2-acetamidopyridin-4-yl)cyclohexyl)-N-(4-chlorophenyl) propanamide], the IC50 was under 250 nM.
For `CC(C(=O)Nc1ccc(Cl)cc1)C1CCC(c2cccc(-c3ccccc3)c2)CC1` (single isomer, unassigned) [Example 317d, 2-(4-([1,1′-biphenyl]-3-yl)cyclohexyl)-N-(4-chlorophenyl) propanamide], the concentration for half-maximal inhibition (IC50) is over 250 nM.
Consider `Cc1cnccc1C1CCC(C(C)C(=O)Nc2ccc(Cl)cc2)CC1` (single isomer, unassigned) [Example 313a, N-(4-chlorophenyl)-2-(4-(3-methylpyridin-4-yl)cyclohexyl) propanamide], for which the IC50 is under 50 nM.
`COc1cc(C2CCC(C(C)C(=O)Nc3ccc(Cl)cc3)CC2)ccn1` (stereo not drawn) [Example 307b, Cis- or trans-N-(4-Chlorophenyl)-2-(4-(2-methoxypyridin-4-yl)cyclohexyl)propanamide]: the IC50 is under 50 nM.
On to `CC(C(=O)Nc1ccc(Cl)cc1)C1CCC(c2cc(-c3ccc(F)cc3)ncn2)CC1` (single isomer, unassigned) [Example 314b, N-(4-chlorophenyl)-2-(4-(6-(4-fluorophenyl)pyrimidin-4-yl)cyclohexyl) propanamide], for which the IC50 is under 250 nM.
On to `CC(C(=O)Nc1ccc(Cl)cc1)C1CCC(c2ccncc2F)CC1` (single isomer, unassigned) [Example 318c, N-(4-chlorophenyl)-2-(4-(3-fluoropyridin-4-yl)cyclohexyl) propanamide], for which the 50% inhibitory concentration (IC50) was over 250 nM.
To `CCC(C(=O)Nc1ccc(Cl)cc1)[C@H]1CC[C@H](Oc2ccncc2C(F)(F)F)CC1` (single isomer, unassigned) [Example 305b, N-(4-Chlorophenyl)-2-((1r,4r)-4-((3-(trifluoromethyl)pyridin-4-yl)oxy)cyclohexyl)-2λ^3-butanamide] belongs under 50 nM.
On to `CC(C(=O)Nc1ccc(Cl)cc1)C1CCC(c2ccnnc2)CC1` (single isomer, unassigned) [Example 316a, N-(4-chlorophenyl)-2-(4-(pyridazin-4-yl)cyclohexyl) propanamide], for which the IC50 is over 250 nM.
`Cc1cnccc1C1CCC(C(C)C(=O)Nc2ccc(Cl)cc2)CC1` (single isomer, unassigned) [Example 313e, N-(4-chlorophenyl)-2-(4-(3-methylpyridin-4-yl)cyclohexyl) propanamide]: the half-inhibitory concentration (IC50) was over 250 nM.
For the molecule `Cc1cc(C2CCC(C(C)C(=O)Nc3ccc(Cl)cc3)CC2)ccn1` (single isomer, unassigned) [Example 309c, N-(4-chlorophenyl)-2-(4-(2-methylpyridin-4-yl)cyclohexyl) propanamide], the IC50 is over 250 nM.
Regarding `CCC(C(=O)Nc1ccc(Cl)cc1)[C@H]1CC[C@H](Oc2ccncc2C(F)(F)F)CC1` (mixture of isomers) [Example 305, N-(4-Chlorophenyl)-2-(trans-4-((3-(trifluoromethyl)pyridin-4-yl)oxy)cyclohexyl)butanamide], the IC50 is over 250 nM.
Regarding `C[C@@H](C(=O)Nc1ccc(Cl)cc1)[C@H]1CC[C@H](Oc2ccnc(C(F)(F)F)c2)CC1` (single isomer, unassigned) [Example 324b], the 50% inhibitory concentration (IC50) is over 250 nM.
As for `Cc1cc(C2CCC(C(C)C(=O)Nc3ccc(Cl)cc3)CC2)ccn1` (single isomer, unassigned) [Example 309d, N-(4-chlorophenyl)-2-(4-(2-methylpyridin-4-yl)cyclohexyl) propanamide], the IC50 is under 50 nM.
With `CC(C(=O)Nc1ccc(Cl)cc1)C1CCC(c2cccc(-c3ccccc3)c2)CC1` (single isomer, unassigned) [Example 317a, 2-(4-([1,1′-biphenyl]-3-yl)cyclohexyl)-N-(4-chlorophenyl) propanamide], the IC50 is under 50 nM.
The same measure for `CCC(C(=O)Nc1ccc(Cl)cc1)[C@H]1CC[C@H](Oc2ccncc2C(F)(F)F)CC1` (single isomer, unassigned) [Example 305a, N-(4-Chlorophenyl)-2-((1r,4r)-4-((3-(trifluoromethyl)pyridin-4-yl)oxy)cyclohexyl)-2λ^3-butanamide]: over 250 nM.

The record behind these values is patent publication US11932601B2, “Immunoregulatory agents” (FLEXUS BIOSCIENCES, INC., priority 2014, dated 2024).
